Test results taken from patent US7749983B2, “Metabolically stable alkoxyalkyl esters of antiviral or antiproliferative phosphonates, nucleoside phosphonates and nucleoside phosphates” (priority 2006, dated 2010).
“And” between values parts separate entries of the source, which are not always exact repeats. Equal entries are not always repeated. Where two headings read alike, the source gives them in different places.

Columns and labels:
[1] = tested on: Ectromelia Virus (ECTV, MOS strain); experiment: microbe, parasite or virus in culture; type: cell-based
[2] = tested on: vaccinia virus strain, Copenhagen; experiment: microbe, parasite or virus in culture; type: cell-based; settings: for EC50: read-out: Vaccinia Copenhagen EC50
HFF cells = experiment: Neutral-red uptake assay for toxicity; settings: 7 days
[3] = tested on: cowpox virus, strain Brighton; experiment: microbe, parasite or virus in culture; type: cell-based; settings: for EC50: read-out: Cowpox Brighton EC50
ectromelia virus (ECTV) = tested on: ectromelia virus (ECTV); design: species or system A/Ncr mice; settings: mouse, in vivo; for MDD, Mean day of death / Mortality: po
[4] = Neutral-red uptake assay for toxicity; settings: human, HFF cells
[5] = Metabolic stability testing with monkey liver S9 fractions; settings: FIG. 3; 37° C., protein 3 mg/mL, compound 1 μM
[6] = Metabolic stability testing with human liver S9 fractions; settings: FIG. 3; 37° C., protein 3 mg/mL, compound 1 μM
[7] = read-out: Ectromelia Virus EC50

Molecule | EC50 [1, 7] [nM] | EC50 [2] [nM] | CC50 (HFF cells; Table 3, neutral-red uptake) [nM] | EC50 [3] [nM] | MDD, Mean day of death (ectromelia virus (ECTV); 2.5 mg/kg) | Mortality (ectromelia virus (ECTV); 2.5 mg/kg) | Mortality (ectromelia virus (ECTV); 5 mg/kg) | Mortality (ectromelia virus (ECTV); 10 mg/kg) | CC50 (HFF cells; Table 4, neutral-red uptake) [nM] | also measured
14-methyl-pentadecyloxypropyl cidofovir [Compound 14M-PDP-CDV] | 170 | 140 | 18000 ± 1100 | 130 | 14 | 1/5 | 0/5 | 0/5 |  | 
17-methyl-octadecyloxyethyl cidofovir [Compound 17M-ODE-CDV] | 80 | 32 | 15000 ± 4000 | 50 |  |  |  |  |  | 
CC(C)CCCCCCCCCCCCCCOCCOP(=O)(O)CO[C@H](CO)Cn1cnc2c(N)ncnc21 [15M-HDE-HPMPA, 3-(15-methylhexadceyloxy)ethyl (S)-HPMPA] | 12 |  |  |  |  |  |  |  |  | 
CC(C)CCCCCCCCCCCCCCOCCCOP(=O)(O)CO[C@H](CO)Cn1cnc2c(N)ncnc21 [15M-HDP-(S)-HPMPA, 3-(15-methylhexadecyloxy)propyl (S)-HPMPA] |  | 12 |  | 52 | 14.3 | 3/5 | 0/5 | 0/5 | 27500 | activity relative to HDP-(S)-HPMPA in lethal ectromelia infection (ectromelia virus (ECTV)): more active than HDP-(S)-HPMPA
CC(C)CCCCCCCCCCCCCCCCOCCOP(=O)(O)CO[C@H](CO)Cn1cnc2c(N)ncnc21 [17M-ODE-(S)-HPMPA, 2-(17-methyloctadecyloxy)ethyl (S)-HPMPA] |  | 9 |  | 11 |  |  |  |  | 800 | 
Nc1ccn(C[C@@H](CO)OCP(=O)(O)O)c(=O)n1 [CDV, cidofovir] |  | 19400 |  | 38100 |  |  |  |  | > 317000 | Vaccinia Copenhagen SI (Selectivity Index) = CC50/EC50 [2]: >17 and >16; EC50 ([2]; Orthopoxvirus vaccinia, HFF): 19000 ± 9900 nM; CC50 at 7 days [4]: > 317000 nM; Cowpox Brighton SI (Selectivity Index) = CC50/EC50 [3]: >10 and >8.3; EC50 ([3]; Cowpox virus, HFF): 31000 ± 1700 nM
CC(C)CCCCCCCCCCCOCCCOP(=O)(O)CO[C@H](CO)Cn1ccc(N)nc1=O [Compound 12M-TrDP-CDV, 12-methyl-tridecyloxypropyl cidofovir] | 940 | 700 | 44000 ± 5400 | 900 |  |  |  |  |  | 
CC(C)CCCCCCCCCCCCOCCCOP(=O)(O)CO[C@H](CO)Cn1ccc(N)nc1=O [Compound 13M-TDP-CDV, 13-methyl-tetradecyloxypropyl cidofovir] | 400 | 130 | 41000 ± 2000 | 200 | 9.3 | 4/5 | 0/5 | 0/5 |  | 
CC(C)CCCCCCCCCCCCCCOCCCOP(=O)(O)CO[C@H](CO)Cn1ccc(N)nc1=O [Compound 15M-HDP-CDV, 15-methyl-hexadecyloxypropyl cidofovir] | 40 | 100 | 15200 ± 5500 | 340 |  |  |  |  |  | degradation by monkey liver S9 fractions (% of drug remaining versus time), relative to HDP-CDV [5]: markedly slower; degradation by human liver S9 fractions (% of drug remaining versus time), relative to HDP-CDV [6]: markedly slower
CCCCCCCCCCCCCCCCOCCOP(=O)(O)COC(CO)Cn1cnc2c(N)ncnc21 (stereo not shown) [HDE-HPMPA, reference compound] | 50 |  |  |  |  |  |  |  |  | 
CCCCCCCCCCCCCCCCOCCCOP(=O)(O)CO[C@H](CO)Cn1cnc2c(N)ncnc21 [HDP-(S)-HPMPA, reference compound] |  | 10 |  | 18 | 9.4 | 5/5 | 1/5 | 0/5 | 31800 | MDD, Mean day of death (ectromelia virus (ECTV); 5 mg/kg): 11
CCCCCCCCCCCCCCCCOCCCOP(=O)(O)CO[C@H](CO)Cn1ccc(N)nc1=O [HDP-CDV, hexadecyloxypropyl-CDV, reference compound] |  |  |  |  | 13 | 2/5 | 0/5 | 0/5 |  | EC50 ([1]; Ectromelia virus, CV-1, read-out: Ectromelia Virus EC50): 140 nM; CC50 (in vitro): 10000 nM; Vaccinia Copenhagen SI (Selectivity Index) = CC50/EC50 [2]: 470; EC50 ([2]; Orthopoxvirus vaccinia, HFF): 200 nM; CC50 at 7 days [4]: 94000 nM; Cowpox Brighton SI (Selectivity Index) = CC50/EC50 [3]: 470; EC50 ([3]; Cowpox virus, HFF): 200 nM
CCCCCCCCCCCCCCCCCCOCCOP(=O)(O)CO[C@H](CO)Cn1cnc2c(N)ncnc21 [ODE-(S)-HPMPA] |  | 8 |  | 12 |  |  |  |  | 2100 | 
